Measurements from patent US20040053966A1, “Chemical derivatives and their application as antitelomerase agent” (Aventis Pharms S.A., priority 1999, published 2004).
pIC50: −log10 of the molar value. Counter-ions that a name gives are not always drawn. Like-named read-outs stand apart in the source and are kept apart here.

Key:
[1] = test system: human telomerase (HL60 cell extract); test: Antitelomerase activity, TRAP (extension of oligonucleotide TS and PCR amplification); type: biochemical; conditions: telomerase extract from HL60 cells
[2] = test system: A549 cells; test: Cytotoxic activity on human tumour line A549 (neutral red); type: cell-based; conditions: 96 hours incubation, read-out: Cytotox. A549 IC50
Description: The Cytotoxic Biological Activity on Human Tumour Lines is Determined According to the Following Experimental Protocol:
The cells at the exponential growth phase are trypsinized, washed in 1× PBS and are inoculated in 96-well microplates (Costar) in an amount of 4×10^4 cells/ml for A549 and of 1.5×10^4 cells/ml (0.2 ml/well) and then incubated for 96 hours in the presence of variable concentrations of product to be studied (10, 1, 0.1 and 0.01 μg/ml, each point in quadruplicate). 16 hours before the end of the incubation, 0.02% final of neutral red is added to each well. At the end of the incubation, the cells are washed with 1× PBS and lysed with 1% sodium lauryl sulphate. The cellular incorporation of the dye, which reflects cellular growth, is evaluated by spectrophotometry at a wavelength of 540 nm for each sample with the aid of a Dynatech MR5000 reading apparatus.
(compound value−blank value/cell control value−blank value)×100.

[3] = test system: G-quadruplex of oligonucleotide GGGTTAGGGTTAGGGTTAGGG (3.5 repeats of the human telomeric motif); test: G-quadruplex stabilizing activity, fluorescence Tm (FAM+DABCYL oligonucleotide); type: binding; conditions: test product 1 μM, oligonucleotide 0.2 μM, 0.1 M LiCl, 10 mM cacodylate pH 7.6; reference without product 44° C.
Excerpt: The G-quadruplex stabilizing activity may be determined by a method using the formation of a complex with fluorescein of which the experimental protocol is described below. Oligonucleotides […] The oligonucleotide FAM+DABCYL carries the catalogue reference OL-0371-0802. It has the sequence: […] The fluorescein is attached to the 5' end, the DABCYL to the 3' end, by the chemical arms described by Eurogentec. The concentration of the samples is checked by spectrophotometry, recording the absorbance spectrum between 220 and 700 nm and using the molar extinction coefficient provided by the supplier. Buffers All the experiments were carried out in a 10 mM sodium cacodylate buffer pH 7.6 containing 0.1 M lithium chloride (or sodium chloride). The absence of fluorescent contamination in the buffer was checked beforehand. The fluorescent oligonucleotide is added at the final concentration of 0.2 μM. Study of Fluorescence All the measurements of fluorescence were carried out on a Spex Fluorolog DMlB apparatus, using an excitation line width of 1.8 nm and an emission line width of 4.5 nm. The samples are placed in a microquartz cuvette of 0.2×1 cm. The temperature of the sample is controlled by an external water bath. The oligonucleotide alone was analysed at 20, 30, 40, 50, 60, 70 and 80° C. The emission spectra are recorded using an excitation wavelength of 470 nm. The excitation spectra are recorded using either 515 nm or 588 nm as emission wavelength. The spectra are corrected for the response of the instrument by reference curves. A high extinction (80-90%) of the fluorescence of fluorescein at room temperature is observed, in agreement with an intramolecular folding of the oligonucleotide at 20° C. in the form of a G-quadruplex, which induces juxtaposition of its [NT] ends which are respectively linked to fluorescein and to DABCYL. This juxtaposition causes an already-described phenomenon of extinction of fluorescence which is used for “molecular beacons”. Fluorescence Tm: […] The samples are then allowed to incubate for at least 1 hour at 20° C. before each measurement. The use of longer incubation times (up to 24 hours) has no influence on the result obtained. Each experiment allows the measurement of only one sample. The latter is first incubated at an initial temperature of 20° C., heated to 80° C. over 38 minutes, left for 5 minutes at 80° C. and then cooled to 20° C. over 62 minutes. During this time, the fluorescence is measured simultaneously at two emission wavelengths (515 nm and 588 nm) using 470 nm as excitation wavelength. A measurement is carried out every 30 seconds. The temperature of the water bath is recorded in parallel, and the fluorescence profile as a function of the temperature is reconstituted from these values. The fluorescence profiles are then normalized between 20° C. and 80° C., and the temperature for which the intensity of emission at 515 nm is the mean of those at high and low temperature is called Tm. Under these conditions, the Tm of the reference sample without addition of product is 44° C. in a lithium chloride buffer. This temperature is increased to more than 55° C. in a sodium chloride buffer. The addition of a G-quadruplex-stabilizing compound induces an increase in the Tm. This increase is judged to be significant if it is greater than […].

Structure (SMILES) | pIC50 [1] | pIC50 ([2]; Homo sapiens, A549, 96 h) | FLUORESCENCE Tm [3] | G4 Tm [3] | pIC50 [2]
Cc1cc(N)c2cc(NC(=O)Nc3ccc4nc(C)cc(N)c4c3)ccc2n1 [Example 13, N,N′-(4-amino-6-quinaldinyl)urea dihydrochloride] | 6.14 | – | – | – | –
COc1cc(C)nc2ccc(Nc3nc(Nc4ccc5nc(C)cc(OC)c5c4)nc(SC)n3)cc12 [Example 17-3] | 5.41 | 5.49 | – | – | –
Cc1cc(N(C)C)c2cc(Nc3nc(Cl)nc(Nc4ccc5nc(C)cc(N(C)C)c5c4)n3)ccc2n1 [Example 11, 2-chloro-bis-4,6-[(4′-dimethylamino-6′-quinaldinyl)amino]triazine dihydrochloride dihydrate] | 5.52 | 5.29 | 57° ° C. | – | –
CSc1nc(Nc2ccc3nc(C)cc(N)c3c2)nc(Nc2ccnc3ccccc23)n1 [Example 18-8] | 5.47 | – | – | 49 °C | –
CCN(CC)c1nc(Nc2ccc3ncccc3c2)nc(Nc2ccc3nc(C)cc(N)c3c2)n1 [Example 19-1] | 6.00 | 5.82 | – | 58 °C | –
CCc1cc(Nc2nc(Nc3ccc4nc(C)cc(N)c4c3)nc(SC)n2)ccn1 [Example 18-12] | 5.55 | – | – | – | –
Cc1cc(N)c2cc(NC(=N)NC(=N)Nc3ccc4nc(C)cc(N)c4c3)ccc2n1 [Example 16, 1,5-(4′-amino-6′-quinaldinyl)-biguanide trihydrochloride dihydrate] | – | 5.24 | 52° ° C. | – | –
Cc1cc(N)c2cc(Nc3nc(N)nc(Nc4ccc5nc(C)cc(N)c5c4)n3)ccc2n1 [Example 8, 2-amino-bis-4,6-[(4′-amino-6′-quinaldinyl)amino]triazine trihydrochloride] | 7.29 | 5.04 | – | – | –
CSc1nc(Nc2ccc3c(c2)c(=N)cc(C)n3C)nc(Nc2ccc3c(c2)c(=N)cc(C)n3C)n1 [Example 17-2] | 6.02 | 5.21 | – | – | –
CSc1nc(Nc2ccc3ncccc3c2)nc(Nc2ccc3nc(C)cc(N)c3c2)n1 [Example 18-5] | 5.47 | – | – | 47 °C | –
CSc1nc(Nc2ccc3nc(C)cc(N)c3c2)nc(Nc2ccc3nc(C)cc(N(C)C)c3c2)n1 [Example 18-3] | 6.47 | 5.00 | – | 57 °C | –
CSc1nc(Nc2ccc3nc[nH]c3c2)nc(Nc2ccc3nc(C)cc(N)c3c2)n1 [Example 18-10] | 5.48 | 5.00 | – | 49 °C | –
C[n+]1c2ccccc2c(N)c2cc(Nc3nc(N)nc(Nc4ccc5c(c4)c(N)c4ccccc4[n+]5C)n3)ccc21 [Example 7, 2-amino-bis-4,6-[(9′-amino-10′-methyl-2′-acridinio)amino]triazine dichloride hydrochloride] | 6.05 | 5.31 | 55° ° C. | – | –
Cc1cc(N)c2cc(Nc3ccnc(Nc4ccc5nc(C)cc(N)c5c4)n3)ccc2n1.Cl.Cl.Cl.O.O.O.O.O [Example 15, bis-2,4-[(4′-amino-6′-quinaldinyl)amino]pyrimidine trihydrochloride pentahydrate] | 6.31 | – | 53° ° C. | – | 5.06
CSc1nc(Nc2ccc(C#N)cc2)nc(Nc2ccc3nc(C)cc(N)c3c2)n1 [Example 18-7] | 5.48 | 5.10 | – | 51 °C | –
CSc1nc(Nc2ccc3nc(C)cc(N)c3c2)nc(Nc2ccc3nc(C)cc(N)c3c2)n1 [Example 17-1] | 7.31 | 5.80 | – | 57 °C | –

Structure (SMILES) | pIC50 [1] | pIC50 ([2]; Homo sapiens, A549, 96 h) | FLUORESCENCE Tm [3] | G4 Tm [3] | pIC50 [2]
CSc1nc(Nc2ccc3nc(C)cc(N)c3c2)nc(N(C)c2ccc3ncccc3c2)n1 [Example 18-1] | 5.46 | – | – | 47 °C | –
CNc1nc(Nc2ccc3nc(C)cc(NC)c3c2)nc(Nc2ccc3nc(C)cc(NC)c3c2)n1 [Example 6, 2-methylamino-bis-4,6-[(4′-methylamino-6′-quinaldinyl)amino]triazine dichloride trihydrochloride] | 6.52 | 5.72 | 44° ° C. | – | –
CSc1nc(Nc2ccc3c(c2)c(N)cc(C)[n+]3C)nc(Nc2ccc3c(c2)c(N)cc(C)[n+]3C)n1 [Example 10, 2-methylthio-bis-4,6-[(1′-methyl-4′-amino-6′-quinaldinio)amino]triazine dichloride] | 6.62 | 5.44 | – | – | –
CSc1nc(Nc2ccc3nc(C)ccc3c2)nc(Nc2ccc3nc(C)cc(N)c3c2)n1 [Example 18-13] | 5.47 | – | – | – | –
N=C(N)c1ccc(Nc2nc(N)nc(Nc3ccc(C(=N)N)cc3)n2)cc1 [Example 9, 2-Amino-bis-4,6-(p-amidinoanilino)triazine trihydrochloride] | 6.13 | 6.28 | – | – | –
CCN(CC)c1nc(Nc2ccncc2)nc(Nc2ccc3nc(C)cc(N)c3c2)n1 [Example 19-2] | 5.60 | – | – | 53 °C | –
COc1ccc2nccc(Nc3nc(Nc4ccc5nc(C)cc(N)c5c4)nc(SC)n3)c2c1 [Example 18-9] | 5.47 | 5.02 | – | 51 °C | –
C[n+]1cccc2cc(Nc3nc(N)nc(Nc4ccc5c(ccc[n+]5C)c4)n3)ccc21 [Example 5, 2-amino-bis-4,6-[(1′-methyl-6′-quinolinio)amino]triazine dichloride] | 6.89 | – | 57° ° C. | – | –
CCn1c2ccccc2c2cc(Nc3nc(Nc4ccc5nc(C)cc(N)c5c4)nc(SC)n3)ccc21 [Example 18-11] | 5.48 | 5.89 | – | 48 °C | –
Cc1cc(N)c2cc(Nc3nc(N)nc(Nc4ccc5c(c4)c(N)cc(C)[n+]5C)n3)ccc2[n+]1C [Example 1, 2-amino-bis-4,6-[(1′-methyl-4′-amino-6′-quinaldinio)amino]triazine dichloride] | 6.60 | – | – | – | –
COc1cc(C)nc2ccc(Nc3nc(Nc4ccc5nc(C)cc(N)c5c4)nc(SC)n3)cc12 [Example 18-2] | 5.64 | – | – | 49 °C | –
C[n+]1ccc(NCCCCCNc2cc[n+](C)c3cc(Cl)ccc23)c2ccc(Cl)cc21 [Example 14, N^1,N^5-bis (7-chloro-1-methyl4-quinolinio)pentane-1,5-diamine diiodide] | – | 5.19 | – | – | –
Cc1cc(N)c2cc(Nc3nc(Nc4ccc5c(c4)c(N)cc(C)[n+]5C)nc(N(C)C)n3)ccc2[n+]1C [Example 3, 2-dimethylamino-bis-4,6-[(1′-methyl-4′-amino-6′-quinaldinio)amino]triazine dichloride] | 6.66 | – | 52° ° C. | – | –
CSc1nc(Nc2ccc3nc(C)cc(C)c3c2)nc(Nc2ccc3nc(C)cc(N)c3c2)n1 [Example 18-4] | 5.66 | – | – | 50 °C | –
CSc1nc(Nc2ccc3nc(C)cc(N(C)C)c3c2)nc(Nc2ccc3nc(C)cc(N(C)C)c3c2)n1 [Example 12, 2-methylthio-bis-4,6-[(4′-dimethylamino-6′-quinaldinyl)amino]triazine hydrate] | 7.39 | – | 70° ° C. | – | –
CC[n+]1c(C)cc(N)c2cc(Nc3nc(N)nc(Nc4ccc5c(c4)c(N)cc(C)[n+]5CC)n3)ccc21 [Example 2, 2-amino-bis-4,6-[(1′-ethyl-4′-amino-6′-quinaldinio)amino]triazine dichloride] | 7.25 | 5.33 | 48° ° C. | – | –
